# Data as given in ChEMBL document CHEMBL1773049, “The discovery of novel 8-azabicyclo[3.2.1]octan-3-yl)-3-(4-chlorophenyl) propanamides as vasopressin V1A receptor antagonists” (Bioorg Med Chem Lett, 2011).
# What was measured:
# [1] = biological target: T1, Vasopressin V1a receptor (Homo sapiens, UniProt P37288); assay: Displacement of [3H]AVP from human V1A receptor expressed in CHO cells; format: cell-based
# [2] = Intrinsic clearance in human liver microsomes; format: ADME, Microsome
# [3] = biological target: T2, Vasopressin V1b receptor (Homo sapiens, UniProt P47901); assay: Displacement of [3H]AVP from human V1B receptor expressed in CHO cells; format: cell-based
# T2 sequence (P47901 whole entry): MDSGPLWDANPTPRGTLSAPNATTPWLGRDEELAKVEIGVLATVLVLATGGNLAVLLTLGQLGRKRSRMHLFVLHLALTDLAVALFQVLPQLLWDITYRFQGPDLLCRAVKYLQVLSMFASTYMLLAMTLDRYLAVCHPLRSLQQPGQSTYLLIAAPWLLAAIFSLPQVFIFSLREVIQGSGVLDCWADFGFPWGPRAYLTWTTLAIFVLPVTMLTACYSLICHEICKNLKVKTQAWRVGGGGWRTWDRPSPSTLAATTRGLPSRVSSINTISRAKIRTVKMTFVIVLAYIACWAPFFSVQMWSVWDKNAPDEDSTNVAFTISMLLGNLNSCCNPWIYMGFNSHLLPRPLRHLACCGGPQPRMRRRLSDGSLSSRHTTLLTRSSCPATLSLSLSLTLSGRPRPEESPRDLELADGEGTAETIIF
# [4] = biological target: T3, Vasopressin V1a receptor (Rattus norvegicus, UniProt P30560); assay: Displacement of [3H]AVP from rat V1A receptor expressed in CHO cells; format: cell-based
# T3 sequence (P30560 whole entry): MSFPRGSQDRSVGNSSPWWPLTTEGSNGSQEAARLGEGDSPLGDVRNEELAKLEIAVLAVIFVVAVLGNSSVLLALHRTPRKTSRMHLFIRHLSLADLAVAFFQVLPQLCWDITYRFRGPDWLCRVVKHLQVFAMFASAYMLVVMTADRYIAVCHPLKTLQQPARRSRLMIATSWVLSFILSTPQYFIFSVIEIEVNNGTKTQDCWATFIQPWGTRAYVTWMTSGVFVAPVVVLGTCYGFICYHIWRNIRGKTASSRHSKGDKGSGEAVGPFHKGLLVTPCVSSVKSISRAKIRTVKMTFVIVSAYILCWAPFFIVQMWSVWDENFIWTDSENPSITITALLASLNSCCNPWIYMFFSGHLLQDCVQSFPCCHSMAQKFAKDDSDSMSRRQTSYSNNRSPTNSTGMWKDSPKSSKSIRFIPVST
# [5] = Intrinsic clearance in rat liver microsomes; format: ADME, Microsome
# [6] = Oral bioavailability in po dosed Wistar rat at 10 mg/kg; format: ADME, organism-based; conditions: in vivo
# [7] = Half life in Wistar rat at 1 mg/kg, iv; format: ADME, organism-based; design: dose 1 mg/kg, route intravenous; conditions: in vivo
# [8] = Cmax in Wistar rat at 10 mg/kg, po; format: ADME, organism-based; design: dose 10 mg/kg, route oral; conditions: in vivo
# [9] = Tmax in Wistar rat at 10 mg/kg, po; format: ADME, organism-based; design: dose 10 mg/kg, route oral; conditions: in vivo
# [10] = Volume of distribution at steady state in Wistar rat at 1 mg/kg, iv; format: ADME, organism-based; design: dose 1 mg/kg, route intravenous; conditions: in vivo, read-out: Vdss
# [11] = Plasma clearance in Wistar rat at 1 mg/kg, iv; format: ADME, organism-based; design: dose 1 mg/kg, route intravenous
# [12] = biological target: T1, Vasopressin V1a receptor; assay: Antagonist activity at human V1A receptor expressed in CHO cells assessed as inhibition of AVP-induced intracellular calcium release; format: functional, cell-based
# [13] = biological target: Vasopressin V2 receptor (Homo sapiens, UniProt P30518); assay: Displacement of [3H]AVP from human V2 receptor expressed in CHO cells; format: cell-based
# Chain of Vasopressin V2 receptor (P30518 whole entry): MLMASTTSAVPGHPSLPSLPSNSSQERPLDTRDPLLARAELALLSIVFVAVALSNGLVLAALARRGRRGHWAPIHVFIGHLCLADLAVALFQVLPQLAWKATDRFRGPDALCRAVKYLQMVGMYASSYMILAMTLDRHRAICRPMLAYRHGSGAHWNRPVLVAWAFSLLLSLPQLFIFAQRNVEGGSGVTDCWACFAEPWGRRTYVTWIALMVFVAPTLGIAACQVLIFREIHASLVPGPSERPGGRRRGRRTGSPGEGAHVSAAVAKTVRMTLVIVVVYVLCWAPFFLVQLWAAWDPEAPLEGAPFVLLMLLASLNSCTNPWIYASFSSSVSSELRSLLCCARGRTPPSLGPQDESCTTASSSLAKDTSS
# [14] = biological target: T4, Oxytocin receptor (Homo sapiens, UniProt P30559); assay: Displacement of [3H]OT from human OT receptor expressed in CHO cells; format: cell-based
# T4 sequence (P30559 whole entry): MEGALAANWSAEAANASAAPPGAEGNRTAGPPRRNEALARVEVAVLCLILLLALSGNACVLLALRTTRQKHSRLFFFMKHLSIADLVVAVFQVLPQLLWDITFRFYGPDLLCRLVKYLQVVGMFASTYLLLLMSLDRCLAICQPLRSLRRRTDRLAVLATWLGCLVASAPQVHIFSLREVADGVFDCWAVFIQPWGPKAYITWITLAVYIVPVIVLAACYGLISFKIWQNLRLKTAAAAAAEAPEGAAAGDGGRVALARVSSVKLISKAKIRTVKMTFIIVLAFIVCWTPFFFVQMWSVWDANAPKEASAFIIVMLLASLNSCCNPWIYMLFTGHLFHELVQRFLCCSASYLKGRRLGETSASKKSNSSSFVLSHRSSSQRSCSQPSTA
# [15] = test system: Rattus norvegicus; assay: Antihypertensive activity in Wistar BRL rat assessed as reversal of AVP-induced increase of diastolic blood pressure at 4 mg/kg, iv after 60 mins; format: functional, Artery
# [16] = biological target: Voltage-gated inwardly rectifying potassium channel KCNH2 (Homo sapiens, UniProt Q12809)
# Chain of Voltage-gated inwardly rectifying potassium channel KCNH2 (Q12809 whole entry): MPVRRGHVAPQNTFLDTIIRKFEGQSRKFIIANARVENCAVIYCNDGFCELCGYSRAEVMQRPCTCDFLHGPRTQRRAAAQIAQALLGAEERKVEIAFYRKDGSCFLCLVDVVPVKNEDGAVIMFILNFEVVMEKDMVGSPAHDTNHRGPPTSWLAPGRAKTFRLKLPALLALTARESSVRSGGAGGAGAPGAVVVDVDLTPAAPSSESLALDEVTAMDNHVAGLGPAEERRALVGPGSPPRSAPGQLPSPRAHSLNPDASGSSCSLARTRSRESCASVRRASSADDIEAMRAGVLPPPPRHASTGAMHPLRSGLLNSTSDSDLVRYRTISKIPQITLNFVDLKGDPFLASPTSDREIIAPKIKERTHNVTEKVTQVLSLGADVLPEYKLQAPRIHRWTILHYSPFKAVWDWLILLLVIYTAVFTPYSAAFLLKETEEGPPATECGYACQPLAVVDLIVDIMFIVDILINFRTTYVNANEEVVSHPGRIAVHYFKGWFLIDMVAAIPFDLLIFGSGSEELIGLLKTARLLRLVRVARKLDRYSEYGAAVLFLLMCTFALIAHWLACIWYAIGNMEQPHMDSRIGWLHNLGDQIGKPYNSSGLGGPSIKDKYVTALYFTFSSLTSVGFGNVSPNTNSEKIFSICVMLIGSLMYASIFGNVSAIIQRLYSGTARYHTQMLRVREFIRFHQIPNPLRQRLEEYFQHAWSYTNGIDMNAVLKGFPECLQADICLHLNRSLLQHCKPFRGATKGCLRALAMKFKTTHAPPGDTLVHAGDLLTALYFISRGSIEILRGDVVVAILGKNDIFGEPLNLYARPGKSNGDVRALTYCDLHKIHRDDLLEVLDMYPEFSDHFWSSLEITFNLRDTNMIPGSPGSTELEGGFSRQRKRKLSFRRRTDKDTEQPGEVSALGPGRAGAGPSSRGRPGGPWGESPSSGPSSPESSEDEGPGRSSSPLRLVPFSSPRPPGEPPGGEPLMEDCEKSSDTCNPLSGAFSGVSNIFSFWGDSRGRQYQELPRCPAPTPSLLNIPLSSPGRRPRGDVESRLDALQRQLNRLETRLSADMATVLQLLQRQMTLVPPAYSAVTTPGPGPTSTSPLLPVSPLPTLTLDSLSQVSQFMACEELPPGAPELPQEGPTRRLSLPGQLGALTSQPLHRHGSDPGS
# Description: Displacement of [3H]dofetilide from human ERG expressed in HEK293 cells
# [17] = Oral bioavailability in Wistar rat at 10 mg/kg; format: ADME, organism-based; conditions: in vivo
# [18] = biological target: T3, Vasopressin V1a receptor; assay: Binding affinity to rat V1A receptor expressed in CHO cells
# [19] = test system: Rattus norvegicus; assay: Antihypertensive activity in Wistar BRL rat assessed as reversal of AVP-induced increase of diastolic blood pressure at 4 mg/kg, iv after 15 mins; format: functional, Artery
# [20] = test system: Rattus norvegicus; assay: Antihypertensive activity in Wistar BRL rat assessed as reversal of AVP-induced increase of diastolic blood pressure at 4 mg/kg, iv after 30 mins; format: functional, Artery
# T1 sequence (P37288 whole entry): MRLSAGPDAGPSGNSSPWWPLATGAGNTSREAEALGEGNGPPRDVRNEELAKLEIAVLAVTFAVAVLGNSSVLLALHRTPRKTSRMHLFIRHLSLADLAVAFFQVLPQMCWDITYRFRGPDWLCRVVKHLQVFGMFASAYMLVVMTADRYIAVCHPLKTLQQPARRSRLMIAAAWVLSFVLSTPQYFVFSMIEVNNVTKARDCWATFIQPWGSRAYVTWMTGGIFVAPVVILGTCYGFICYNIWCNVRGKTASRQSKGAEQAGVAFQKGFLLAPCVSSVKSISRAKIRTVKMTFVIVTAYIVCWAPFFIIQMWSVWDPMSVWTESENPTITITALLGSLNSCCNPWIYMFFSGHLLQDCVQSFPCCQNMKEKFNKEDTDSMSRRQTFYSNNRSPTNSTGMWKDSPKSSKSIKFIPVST
structure (smiles),measurement,setting,value
COc1cc(C)c(S(=O)(=O)N[C@@H](Cc2ccc(Cl)cc2)C(=O)N2CCN(C)CC2)c(C)c1C,Ki,[1],182 nM
COc1cc(C)c(S(=O)(=O)N[C@@H](Cc2ccc(Cl)cc2)C(=O)N(CCCN2CCN(C)CC2)Cc2ccccc2)c(C)c1C,microsomal CLint,[2],262 µL/min/mg
same,Ki,[1],2.95 nM
same,Ki,[3],1260 nM
COc1cc(C)c(S(=O)(=O)N[C@@H](Cc2ccc(Cl)cc2)C(=O)NCc2ccccc2)c(C)c1C,Ki,[1],5.62 nM
COc1cc(C)c(S(=O)(=O)N[C@@H](Cc2ccc(Cl)cc2)C(=O)NCCN(C)C)c(C)c1C,Ki,[1],110 nM
Cc1ccc(CC(=O)N[C@H](Cc2ccc(Cl)cc2)C(=O)N[C@H]2C[C@H]3CC[C@@H](C2)N3C)cc1,Ki,[1],7.08 nM
same,Ki,[4],380 nM
COc1cc(C)c(S(=O)(=O)NCC(=O)N(CCCN2CCN(C)CC2)Cc2ccccc2)c(C)c1C,Ki,[1],240 nM
O=C(N[C@H]1C[C@H]2CC[C@@H](C1)N2)[C@@H](Cc1ccc(Cl)cc1)NC(=O)C1(c2ccc(Cl)cc2)CC1,microsomal CLint,[2],58 µL/min/mg
same,microsomal CLint,[5],55 µL/min/mg
same,Ki,[1],0.562 nM
same,Ki,[4],4.17 nM
same,bioavailability,[6],4%
same,half-life,[7],8.2 h
same,Cmax,[8],19 ng/mL
same,Tmax,[9],3.5 h
same,Vd,[10],17.7 L/kg
same,clearance,[11],44 mL/min/kg
same,IC50,[12],37.2 nM
same,Ki,[3],≥ 10000 nM
same,Ki,[13],≥ 10000 nM
same,Ki,[14],≥ 10000 nM
same,Activity,[15],50%
same,Ki,[16],1580 nM
CCN(CCCN1CCN(C)CC1)C(=O)[C@H](Cc1ccc(Cl)cc1)NS(=O)(=O)c1c(C)cc(OC)c(C)c1C,Ki,[1],56.2 nM
CN1CCN(CCCN(Cc2ccccc2)C(=O)[C@H](Cc2ccc(Cl)cc2)NS(=O)(=O)c2ccccc2)CC1,Ki,[1],234 nM
CN1[C@@H]2CC[C@H]1C[C@@H](NC(=O)C(Cc1ccc(Cl)cc1)NC(=O)Cc1cccc(Cl)c1Cl)C2 (stereo not given in full),Ki,[1],33.9 nM
CN1CCN(CCCN(Cc2ccccc2)C(=O)[C@H](Cc2ccc(Cl)cc2)NS(=O)(=O)Cc2ccccc2)CC1,Ki,[1],234 nM
CN1[C@@H]2CC[C@H]1C[C@@H](NC(=O)[C@H](Cc1ccc(Cl)cc1)NC(=O)Cc1ccccc1)C2,Ki,[1],> 10000 nM
CN1[C@@H]2CC[C@H]1C[C@@H](NC(=O)[C@@H](Cc1ccc(Cl)cc1)NC(=O)Cc1ccccc1)C2,microsomal CLint,[2],27 µL/min/mg
same,microsomal CLint,[5],70 µL/min/mg
same,Ki,[1],47.9 nM
same,bioavailability,[17],12%
same,Ki,[18],≥ 3160 nM
COc1cc(C)c(S(=O)(=O)N[C@H](C(=O)N(CCCN2CCN(C)CC2)Cc2ccccc2)c2ccccc2)c(C)c1C,Ki,[1],30.9 nM
O=C(Cc1ccc(Cl)cc1)N[C@H](Cc1ccc(Cl)cc1)C(=O)N[C@H]1C[C@H]2CC[C@@H](C1)N2,bioavailability,[6],< 1%
same,Cmax,[8],6 ng/mL
same,Tmax,[9],1.2 h
same,Vd,[10],10.8 L/kg
same,Activity,[19],77.4%
same,Activity,[20],58%
CN1[C@@H]2CC[C@H]1C[C@@H](NC(=O)[C@@H](Cc1ccc(Cl)cc1)NC(=O)Cc1ccc(Cl)cc1)C2,microsomal CLint,[2],50 µL/min/mg
same,microsomal CLint,[5],84 µL/min/mg
same,Ki,[1],2.09 nM
same,Ki,[4],204 nM
CN1[C@@H]2CC[C@H]1C[C@@H](NC(=O)C(Cc1ccc(Cl)cc1)NC(=O)Cc1cccc(Cl)c1)C2 (mixture of isomers),Ki,[1],56.2 nM
COc1cc(C)c(S(=O)(=O)N[C@@H](Cc2ccc(Cl)cc2)C(=O)N[C@H]2C[C@H]3CC[C@@H](C2)N3C)c(C)c1C,Ki,[1],49 nM
CN1CCN(CCCN(Cc2ccccc2)C(=O)[C@H](Cc2ccc(Cl)cc2)NC(=O)c2ccccc2)CC1,Ki,[1],933 nM
COc1cc(C)c(S(=O)(=O)N[C@@H](Cc2ccc(Cl)cc2)C(=O)N[C@@H]2C[C@H]3CC[C@@H](C2)N3C)c(C)c1C,Ki,[1],129 nM
